For 13 compounds, TGI results are on record in PubChem BioAssay (NCI).

Molecules are shown by their SMILES.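 Test compounds were applied to cells in 96-well plates for 48 hours at 5 doses. TGI denotes the concentration required for complete inhibition of growth.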

Test systems include SK-MEL-28 melanoma; M14 melanoma; CAKI-1 renal; KM12 colon; SNB-75 CNS; SF-539 CNS; SK-MEL-2 melanoma; OVCAR-5 ovarian; SK-MEL-5 melanoma; U251 CNS.
Experiment in all cases: inhibition of tumour cell growth, NCI panel, 48 h

`C[C@H]1[C@H](C)CC[C@]2(C(=O)O)CCC3(COC(=O)/C=C/c4ccc(O)cc4)C(=CCC4[C@@]5(C)CC[C@H](O)C(C)(C)C5CC[C@]43C)[C@H]12` (stereo partly drawn): the TGI came to 22.9 µM in the assay with SK-MEL-28 melanoma; 24.9 µM in the assay on M14 melanoma; 22.1 µM with CAKI-1 renal; 16.3 µM with KM12 colon; 23.8 µM in the assay on SNB-75 CNS; 16.5 µM in the assay with SF-539 CNS. In addition, the TGI with SK-MEL-2 melanoma came out at 43.2 µM; in the assay with OVCAR-5 ovarian, 28.6 µM; with SK-MEL-5 melanoma, 24.4 µM; with U251 CNS, 9.92 µM.

For `Cc1ccc(C(CCO)CCO)nc1`, the TGI in the assay on SK-MEL-28 melanoma, in the assay with M14 melanoma, in the assay on CAKI-1 renal, in the assay with KM12 colon, in the assay on SNB-75 CNS and in the assay with SF-539 CNS was above 100 µM each time. The TGI with SK-MEL-2 melanoma, in the assay with OVCAR-5 ovarian, in the assay on SK-MEL-5 melanoma and with U251 CNS was above 100 µM each time.

For the compound `CCCCCCc1cc2cc(-c3cn4ccccc4n3)c(=O)oc2cc1O`, the TGI with SK-MEL-28 melanoma was 24.7 µM; with M14 melanoma, 16.1 µM; with CAKI-1 renal, 13.5 µM; in the assay with KM12 colon, above 67.9 µM; in the assay with SNB-75 CNS, 8.81 µM; in the assay with SF-539 CNS, 7.19 µM. Moreover, the TGI in the assay with SK-MEL-2 melanoma is 28.5 µM; with OVCAR-5 ovarian, 51.7 µM; in the assay with SK-MEL-5 melanoma, 22.1 µM; in the assay on U251 CNS, 10.2 µM.

As for `C[N+]1(C)C/C(=C\C=C\c2ccccc2)C(=O)/C(=C/C=C/c2ccccc2)C1`, the TGI in the assay with SK-MEL-28 melanoma is 17 µM; in the assay with M14 melanoma, 39.1 µM; with CAKI-1 renal, above 82.3 µM; in the assay on KM12 colon, 10.3 µM; in the assay with SNB-75 CNS it was 40.3 µM; in the assay on SF-539 CNS it was 33.9 µM. Also, the TGI came to 64.2 µM in the assay with SK-MEL-2 melanoma, 54.7 µM with OVCAR-5 ovarian, 25.2 µM in the assay on SK-MEL-5 melanoma and 19.2 µM with U251 CNS.

For `O=C(NCCCN1CCN(CCCNC(=O)c2cc(-c3ccccc3)nc3ccccc23)CC1)c1cc(-c2ccccc2)nc2ccccc12`, the TGI is 3.99 µM in the assay on SK-MEL-28 melanoma; 5.63 µM in the assay on M14 melanoma; 20.8 µM with CAKI-1 renal; above 58.2 µM with KM12 colon; above 52.6 µM in the assay on SNB-75 CNS; 41.5 µM in the assay with SF-539 CNS. The TGI was 36.9 µM in the assay with SK-MEL-2 melanoma, above 78.2 µM in the assay with OVCAR-5 ovarian, 3.98 µM with SK-MEL-5 melanoma and 30.7 µM with U251 CNS.

On to `Cn1c2ccccc2c(=NNc2ccc(S(=O)(=O)N=C(N)N)cc2)c2ccccc21`, for which the TGI came to 30.1 µM in the assay on M14 melanoma; 38.8 µM in the assay with CAKI-1 renal; 20.6 µM in the assay with KM12 colon; 25.4 µM with SNB-75 CNS; 27.3 µM with SF-539 CNS; 28 µM with SK-MEL-2 melanoma. The TGI in the assay on OVCAR-5 ovarian is 20.2 µM; with SK-MEL-5 melanoma, 20.1 µM; in the assay on U251 CNS, 21.6 µM.

For `CC(C)(C)c1cc(OCc2n[nH]c(=S)n2N)c(Cl)cc1OCc1n[nH]c(=S)n1N`, the TGI in the assay with SK-MEL-28 melanoma, in the assay with M14 melanoma, in the assay with CAKI-1 renal, in the assay on KM12 colon, with SNB-75 CNS and in the assay on SF-539 CNS was above 100 µM each time. For the same compound, the TGI with SK-MEL-2 melanoma is 43 µM; in the assay on OVCAR-5 ovarian it was above 100 µM; with SK-MEL-5 melanoma, 54.6 µM; with U251 CNS it was above 100 µM.

For `CC(C)(Cl)C(Cl)CC/C(CBr)=C(\Cl)CBr` (stereo not drawn), the TGI with SK-MEL-28 melanoma is 4.38 µM; with M14 melanoma, 3.22 µM; in the assay with CAKI-1 renal, 7.08 µM; in the assay with KM12 colon, 6.08 µM; in the assay with SNB-75 CNS, 4.85 µM; in the assay on SF-539 CNS, 5.53 µM. Besides, the TGI in the assay with SK-MEL-2 melanoma stood at 3.28 µM; in the assay with OVCAR-5 ovarian it was 5.19 µM; in the assay with SK-MEL-5 melanoma, 3.74 µM; in the assay with U251 CNS, 3.57 µM.

In the case of `[O-][N+]1=C(c2ccccc2)/C(=C2/C(c3ccccc3)=[N+]([O-])c3ccccc32)Cc2ccccc21`, the TGI with SK-MEL-28 melanoma was 46.2 µM; in the assay with M14 melanoma, 53.7 µM; with CAKI-1 renal, 47.4 µM; in the assay with KM12 colon it was 33.9 µM; with SNB-75 CNS, 47.1 µM; in the assay with SF-539 CNS, 56.4 µM. Further, the TGI is 36.6 µM in the assay with SK-MEL-2 melanoma, above 100 µM with OVCAR-5 ovarian, 35.4 µM in the assay on SK-MEL-5 melanoma and 38.7 µM in the assay on U251 CNS.

`CCOC(=O)c1c(Br)c(-c2ccc([N+](=O)[O-])cc2)c(Br)n1C`: the TGI in the assay with SK-MEL-28 melanoma, in the assay on M14 melanoma, in the assay with CAKI-1 renal, in the assay on KM12 colon, with SNB-75 CNS and in the assay on SF-539 CNS was above 10 µM in each case. The TGI with SK-MEL-2 melanoma, in the assay on OVCAR-5 ovarian, in the assay on SK-MEL-5 melanoma and with U251 CNS was above 10 µM each time.

Consider `CC(=O)c1sc2c(c1OC(=O)c1ccccc1)c(=O)n(-c1ccccc1)c(=S)n2-c1ccccc1`, for which the TGI is 30.4 µM in the assay on SK-MEL-28 melanoma; 14.3 µM with M14 melanoma; above 26.4 µM in the assay on CAKI-1 renal; 92.3 µM with KM12 colon; 28.6 µM with SNB-75 CNS; 5.65 µM in the assay on SF-539 CNS. For the same compound, the TGI with SK-MEL-2 melanoma came out at 7.88 µM; in the assay on OVCAR-5 ovarian it was 17.1 µM; in the assay on SK-MEL-5 melanoma, 18.4 µM; with U251 CNS, 23.7 µM.

As for `CC(Cn1c(=O)oc2ccccc21)N(C)C` (stereo not drawn), the TGI in the assay with SK-MEL-28 melanoma, in the assay on M14 melanoma, in the assay on CAKI-1 renal, in the assay on KM12 colon, in the assay on SNB-75 CNS and in the assay with SF-539 CNS was above 100 µM each time. Also, the TGI with SK-MEL-2 melanoma, in the assay on OVCAR-5 ovarian, in the assay with SK-MEL-5 melanoma and in the assay with U251 CNS was above 100 µM in each case.

For the compound `Cc1c2c(n3c(nc4ccccc43)c1C#N)NCC2`, the TGI in the assay with SK-MEL-28 melanoma, in the assay on M14 melanoma, in the assay on CAKI-1 renal, in the assay with KM12 colon, with SNB-75 CNS and with SF-539 CNS was above 10 µM throughout. Also, the TGI with OVCAR-5 ovarian, with SK-MEL-5 melanoma and in the assay on U251 CNS was above 10 µM throughout.
